The text below walks through data of patent US10080743B2, “Isoxazole derivatives as FXR agonists and methods of use thereof” (Enanta Pharmaceuticals, Inc., priority 2016, dated 2018).

In the experiment the target is T1, human FXR (NR1H4) (Homo sapiens, UniProt Q96RI1).
T1 construct: host or cells: CHO (Chinese hamster ovary) cells
T1 sequence (Q96RI1 1-486): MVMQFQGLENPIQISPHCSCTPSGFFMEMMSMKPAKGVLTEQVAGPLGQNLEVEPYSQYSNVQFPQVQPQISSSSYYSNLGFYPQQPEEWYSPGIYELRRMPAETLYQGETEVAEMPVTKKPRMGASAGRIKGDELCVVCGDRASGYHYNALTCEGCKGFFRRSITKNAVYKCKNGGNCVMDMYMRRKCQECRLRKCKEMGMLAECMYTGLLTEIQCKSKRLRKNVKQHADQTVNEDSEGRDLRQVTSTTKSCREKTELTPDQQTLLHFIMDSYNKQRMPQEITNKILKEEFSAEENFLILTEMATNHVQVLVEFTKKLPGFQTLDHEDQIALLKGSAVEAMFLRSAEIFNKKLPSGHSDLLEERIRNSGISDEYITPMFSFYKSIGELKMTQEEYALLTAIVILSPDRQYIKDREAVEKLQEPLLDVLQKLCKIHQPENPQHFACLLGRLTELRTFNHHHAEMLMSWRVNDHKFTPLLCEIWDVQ
Briefly: Human FXR (NR1H4) Assay (Gal4 promoter driven luciferase reporter transactivation, Indigo Bioscience kit IB00601). Type of experiment: cell-based. The conditions noted are these: for EC50: Human FXR (NR1H4) reporter assay, CHO cells expressing human NR1H4, potency ranges; for Efficacy (%): efficacy normalized to CDCA set as 100%. The source says:
Human FXR (NR1H4) Assay Determination of a ligand mediated Gal4 promoter driven transactivation to quantify ligand binding mediated activation of FXR. FXR Reporter Assay kit purchased from Indigo Bioscience (Catalogue number: IB00601) to determine the potency and efficacy of compound developed by Enanta that can induce FXR activation. The principle application of this reporter assay system is to quantify functional activity of human FXR. The assay utilizes non-human mammalian cells, CHO (Chinese hamster ovary) cells engineered to express human NR1H4 protein (referred to as FXR). Reporter cells also incorporate the cDNA encoding beetle luciferase which catalyzes the substrates and yields photon emission. Luminescence intensity of the reaction is quantified using a plate-reading luminometer, Envision. Reporter Cells include the luciferase reporter gene functionally linked to an FXR responsive promoter. Thus, quantifying changes in luciferase expression in the treated reporter cells provides a sensitive surrogate measure of the changes in FXR activity. […] The assay is according to the manufacturer's instructions. […] Retrieve Reporter Cells from −80° C. storage. Perform a rapid thaw of the frozen cells by transferring a 10 ml volume of 37° C. cell recovery medium into the tube of frozen cells. Recap the tube of Reporter Cells and immediately place it in a 37° C. water bath for 5-10 minutes. Retrieve the tube of Reporter Cell Suspension from the water bath. Sanitize the outside surface of the tube with a 70% alcohol swab, and then transfer it into the cell culture hood. Dispense 90 μl of cell suspension into each well of the 96-well Assay Plate. Transfer the plate into 37° C. incubator, allowing the cells adherent to the bottom of the well. Dilute compounds in Dilution Plate (DP), and administrate to cells at Assay Plate (AP). DMSO content of the samples was kept at 0.2%. Cells were incubated for additional 22 hours before luciferase activities were measured. Thirty minutes before intending to quantify FXR activity, remove Detection Substrate and Detection Buffer from the refrigerator and place them in a low-light area so that they may equilibrate to room temperature. Remove the plate's lid and discard all media contents by ejecting it into an appropriate waste container. Gently tap the inverted plate onto a clean absorbent paper towel to remove residual droplets. Cells will remain tightly adhered to well bottoms. Add 100 μl of luciferase detection reagent to each well of the assay plate. Allow the assay plate to rest at room temperature for at least 5 minutes following the addition of LDR. Set the instrument (Envision) to perform a single 5 second “plate shake” prior to reading the first assay well. Read time may be 0.5 second (500 mSec) per well.

In general, EC50 refers to the concentration at which the effect is half-maximal. Take `CC(C)c1onc(-c2c(Cl)cccc2Cl)c1COc1ccc(-c2ccc3c(C(=O)O)cccc3c2)cc1` [Compound (1), reference compound]: the EC50 was 100 to 1000 nM and the “Efficacy (%)” value came to 220%.
In the case of `CC(C)c1onc(-c2c(Cl)cccc2Cl)c1COc1ccc(-c2ccc3c(NC(=O)NS(=O)(=O)C4CC4)cccc3c2)cc1` [Compound 11], the EC50 was in the range of 100 to 1000 nM and the “Efficacy (%)” value was 1.2%.
The corresponding values for `CC(C)c1onc(-c2c(Cl)cccc2Cl)c1COc1ccc(-c2ccc3c(NC(=O)NS(=O)(=O)c4ccccc4)cccc3c2)cc1` [Compound 16] are 100 to 1000 nM and 117%.
The corresponding values for `CC(C)c1onc(-c2c(Cl)cccc2Cl)c1COc1ccc(-c2ccc3c(C(=O)NS(=O)(=O)N(C)C)cccc3c2)cc1` [Compound 90] are 100 to 1000 nM and 1.3%.
